Twelve compounds from US10947248B2, “4β-amidotriazole linked podophyllotoxin derivatives as potential anticancer agents” (COUNCIL OF SCIENTIFIC & INDUSTRIAL RESEARCH, priority 2016, dated 2021) can be followed below.

SMILES strings stand for the structures. Where two headings read alike, the source gives them in different places.

Data set [1] relates to MCF-7 (human breast cancer). Description: MTT in vitro cytotoxicity assay, MCF-7. The format is cell-based. Conditions: read-out: IC50 MCF-7.
In data set [2] the test system is Hela (human cervical cancer). Description: MTT in vitro cytotoxicity assay, Hela. The note with it: read-out: IC50 Hela. The format is cell-based.
Data set [3] has as its system HT-29 (colon cancer). In words: MTT in vitro cytotoxicity assay, HT-29. The class given is cell-based. Conditions: Homo sapiens, read-out: IC50 HT-29.
Data set [4] relates to DU-145 (human prostate cancer). Description: MTT in vitro cytotoxicity assay, DU-145. The format is cell-based. Conditions: read-out: IC50 DU-145.
The test system of data set [5] is human cancer cell lines (Hela, MCF-7, DU-145, A549, HepG2, HT-29). Description: MTT in vitro cytotoxicity assay, all tested human cancer cell lines. The format is cell-based. Conditions: range over Hela, read-out: IC50 values ranging over all tested human cancer cell lines. The source says:
The IC50 values (in μM) for compounds 8a, 8c, 8n, 8p, 9c and 9p have been illustrated in Table 1.

The test system of data set [6] is HepG2 (liver cancer). In words: MTT in vitro cytotoxicity assay, HepG2. The format is cell-based. The note with it: Homo sapiens, read-out: IC50 HepG2.
Data set [7] deals with A549 (human lung cancer). In words: MTT in vitro cytotoxicity assay, A549. The format is cell-based. Conditions: read-out: IC50 A549.

Consider `COc1cc(Cn2cc(C(=O)N[C@@H]3c4cc5c(cc4[C@@H](c4cc(OC)c(OC)c(OC)c4)[C@H]4C(=O)OC[C@@H]43)OCO5)nn2)cc(OC)c1OC`, for which the melting point lay in the range of 189 to 192 °C.
For the compound `COc1cc([C@@H]2c3cc4c(cc3[C@@H](NC(=O)c3cn(Cc5ccc(Cl)cc5)nn3)[C@H]3COC(=O)[C@H]23)OCO4)cc(OC)c1OC` [Compound 9p, 1-(4-chlorobenzyl)-N-((5S,5aS,8aR,9R)-8-oxo-9-(3,4,5-trimethoxyphenyl)-5,5a,6,8,8a,9-hexahydrofuro[3′,4′:6,7]naphtho[2,3-d][1,3]dioxol-5-yl)-1H-1,2,3-triazole-4-carboxamide], the melting point is 180 to 184 °C. Besides, the IC50 in data set [1] (MCF7, 48 h) is 5.3 ± 0.39 µM. The 50% inhibitory concentration (IC50) in data set [2] (HeLa, 48 h) was determined as 3.57 ± 0.16 µM. Also, the 50% inhibitory concentration (IC50) in data set [3] (HT-29, 48 h) was found to be 23.7 ± 0.38 µM. For the same compound, in data set [4] (DU-145, 48 h), the concentration for half-maximal inhibition (IC50) was determined as 2.37 ± 0.08 µM. Moreover, in data set [5], the IC50 is 0.7 to 4 µM. The IC50 in data set [6] (HepG2, 48 h) turned out to be 3.54 ± 0.37 µM. In addition, the half-maximal inhibitory concentration (IC50) in data set [7] (A549, 48 h) turned out to be 8.06 ± 0.06 µM.
In turn, `COc1cc(OC)cc(-n2cc(C(=O)N[C@@H]3c4cc5c(cc4[C@@H](c4cc(OC)c(OC)c(OC)c4)[C@H]4C(=O)OC[C@@H]43)OCO5)nn2)c1` displayed a melting point of 145 to 148 °C.
In the case of `COc1cc([C@@H]2c3cc4c(cc3[C@@H](O[C@@H]3O[C@@H]5CO[C@@H](C)O[C@H]5[C@H](O)[C@H]3O)[C@H]3COC(=O)[C@H]23)OCO4)cc(OC)c1O` [Etoposide, reference compound], the IC50 in data set [1] (MCF7, MCF-7, 48 h of drug treatment, average of three individual experiments) was 1.62 ± 0.14 µM; in data set [2] (Hela, 48 h of drug treatment, average of three individual experiments), 2.71 ± 0.52 µM; in data set [3] (HT-29, 48 h of drug treatment, average of three individual experiments) it was 1.87 ± 0.31 µM; in data set [4] (DU-145, 48 h of drug treatment, average of three individual experiments) it was 2.35 ± 0.05 µM; in data set [6] (HepG2, 48 h of drug treatment, average of three individual experiments) it was 2.84 ± 0.27 µM; in data set [7] (A549, 48 h of drug treatment, average of three individual experiments), 1.97 ± 0.17 µM.
Compound `COc1cc([C@@H]2c3cc4c(cc3[C@@H](NC(=O)c3cn(-c5ccc(C(F)(F)F)cc5)nn3)[C@H]3COC(=O)[C@H]23)OCO4)cc(OC)c1OC` [Compound 8n, N-((5S,5aS,8aR,9R)-8-oxo-9-(3,4,5-trimethoxyphenyl)-5,5a,6,8,8a,9-hexahydrofuro[3′,4′:6,7]naphtho[2,3-d][1,3]dioxol-5-yl)-1-(4-(trifluoromethyl)phenyl)-1H-1,2,3-triazole-4-carboxamide] yielded a melting point of 190 to 194 °C. Also, in data set [1] (MCF7, 48 h), the IC50 was 1.35 ± 0.07 µM. Also, the IC50 in data set [2] (HeLa, 48 h) was 1.21 ± 0.27 µM. In addition, in data set [3] (HT-29, 48 h), the 50% inhibitory concentration (IC50) came to 4.4 ± 0.05 µM. For the same compound, the half-maximal inhibitory concentration (IC50) in data set [4] (DU-145, 48 h) turned out to be 0.89 ± 0.02 µM. In data set [5], the half-maximal inhibitory concentration (IC50) fell in the range of 0.7 to 4 µM. Further, the concentration for half-maximal inhibition (IC50) in data set [6] (HepG2, 48 h) amounted to 1.21 ± 0.27 µM. Also, in data set [7] (A549, 48 h), the IC50 is 1.96 ± 0.08 µM.
As to `COc1cc([C@@H]2c3cc4c(cc3[C@@H](NC(=O)c3cn(-c5ccc(Cl)cc5)nn3)[C@H]3COC(=O)[C@H]23)OCO4)cc(OC)c1OC` [Compound 8p, 1-(4-chlorophenyl)-N-((5S,5aS,8aR,9R)-8-oxo-9-(3,4,5-trimethoxyphenyl)-5,5a,6,8,8a,9-hexahydrofuro[3′,4′:6,7]naphtho[2,3-d][1,3]dioxol-5-yl)-1H-1,2,3-triazole-4-carboxamide], the melting point lay within 222 to 225 °C. For the same compound, in data set [1] (MCF7, 48 h), the half-inhibitory concentration (IC50) is 0.97 µM. Besides, in data set [2] (HeLa, 48 h), the concentration for half-maximal inhibition (IC50) amounted to 0.78 µM. For the same compound, the IC50 in data set [3] (HT-29, 48 h) is 4.11 µM. The IC50 in data set [4] (DU-145, 48 h) worked out at 0.7 µM. Moreover, in data set [5], the half-maximal inhibitory concentration (IC50) lay within 0.7 to 4.11 µM. Moreover, in data set [6] (HepG2, 48 h), the IC50 stood at 0.78 µM. In addition, the IC50 in data set [7] (A549, 48 h) came to 1.2 µM.
As for `COc1cc([C@@H]2c3cc4c(cc3[C@@H](NC(=O)c3cn(-c5ccc6c(c5)OCO6)nn3)[C@H]3COC(=O)[C@H]23)OCO4)cc(OC)c1OC`, the melting point lay within 188 to 191 °C.
Take `COc1ccc(-n2cc(C(=O)N[C@@H]3c4cc5c(cc4[C@@H](c4cc(OC)c(OC)c(OC)c4)[C@H]4C(=O)OC[C@@H]43)OCO5)nn2)cc1` [Compound 8c, 1-(4-methoxyphenyl)-N-((5S,5aS,8aR,9R)-8-oxo-9-(3,4,5-trimethoxyphenyl)-5,5a,6,8,8a,9-hexahydrofuro[3′,4′:6,7]naphtho[2,3-d][1,3]dioxol-5-yl)-1H-1,2,3-triazole-4-carboxamide]: the melting point lay in the range of 195 to 197 °C. Further, the concentration for half-maximal inhibition (IC50) in data set [1] (MCF7, 48 h) is 1.11 ± 0.1 µM. In addition, the IC50 in data set [2] (HeLa, 48 h) came to 6.49 ± 0.22 µM. In addition, the IC50 in data set [3] (HT-29, 48 h) was found to be 11.4 ± 1.66 µM. Besides, the IC50 in data set [4] (DU-145, 48 h) worked out at 0.99 ± 0.07 µM. Moreover, in data set [5], the half-inhibitory concentration (IC50) was 0.7 to 4 µM. Also, the half-inhibitory concentration (IC50) in data set [6] (HepG2, 48 h) came to 2.79 ± 0.54 µM. For the same compound, in data set [7] (A549, 48 h), the IC50 came to 1.61 ± 0.38 µM.
The compound `COc1cc([C@@H]2c3cc4c(cc3[C@@H](NC(=O)c3cn(-c5cc(OC)c(OC)c(OC)c5)nn3)[C@H]3COC(=O)[C@H]23)OCO4)cc(OC)c1OC` came in with a melting point of 181 to 183 °C.
With `COc1ccc(Cn2cc(C(=O)N[C@@H]3c4cc5c(cc4[C@@H](c4cc(OC)c(OC)c(OC)c4)[C@H]4C(=O)OC[C@@H]43)OCO5)nn2)cc1` [Compound 9c, 1-(4-methoxybenzyl)-N-((5S,5aS,8aR,9R)-8-oxo-9-(3,4,5-trimethoxyphenyl)-5,5a,6,8,8a,9-hexahydrofuro[3′,4′:6,7]naphtho[2,3-d][1,3]dioxol-5-yl)-1H-1,2,3-triazole-4-carboxamide], the melting point was 174 to 177 °C. For the same compound, the half-inhibitory concentration (IC50) in data set [1] (MCF7, 48 h) is 3.32 ± 0.55 µM. Besides, in data set [2] (HeLa, 48 h), the IC50 was 3.46 ± 0.06 µM. For the same compound, in data set [3] (HT-29, 48 h), the concentration for half-maximal inhibition (IC50) was 17.5 ± 0.34 µM. For the same compound, the IC50 in data set [4] (DU-145, 48 h) stood at 1.76 ± 0.27 µM. In addition, the half-maximal inhibitory concentration (IC50) in data set [5] was in the range of 0.7 to 4 µM. In addition, in data set [6] (HepG2, 48 h), the concentration for half-maximal inhibition (IC50) is 1.96 ± 0.07 µM. Besides, in data set [7] (A549, 48 h), the IC50 worked out at 5.82 ± 0.43 µM.
In turn, `COc1cc([C@@H]2c3cc4c(cc3[C@@H](NC(=O)c3cn(-c5ccccc5)nn3)[C@H]3COC(=O)[C@H]23)OCO4)cc(OC)c1OC` [Compound 8a, N-((5S,5aS,8aR,9R)-8-oxo-9-(3,4,5-trimethoxyphenyl)-5,5a,6,8,8a,9-hexahydrofuro[3′,4′:6,7]naphtho[2,3-d][1,3]dioxol-5-yl)-1-phenyl-1H-1,2,3-triazole-4-carboxamide] displayed a melting point of 170 to 172 °C. In data set [1] (MCF7, 48 h), the IC50 amounted to 1.45 ± 0.46 µM. Moreover, in data set [2] (HeLa, 48 h), the IC50 is 2.47 ± 0.24 µM. Further, the IC50 in data set [3] (HT-29, 48 h) is 5.37 ± 0.74 µM. Moreover, in data set [4] (DU-145, 48 h), the IC50 stood at 1.31 ± 0.11 µM. For the same compound, in data set [5], the IC50 lay within 0.7 to 4 µM. Further, in data set [6] (HepG2, 48 h), the concentration for half-maximal inhibition (IC50) stood at 1.94 ± 0.13 µM. The IC50 in data set [7] (A549, 48 h) is 1.82 ± 0.11 µM.
As for `COc1cc([C@@H]2c3cc4c(cc3[C@H](O)[C@H]3COC(=O)[C@H]23)OCO4)cc(OC)c1OC` [Podophyllotoxin], the 50% inhibitory concentration (IC50) in data set [1] (MCF7, 48 h) is 3.06 ± 0.24 µM; in data set [2] (HeLa, 48 h), 3.45 ± 0.29 µM; in data set [3] (HT-29, 48 h) it was 4.78 ± 0.16 µM; in data set [4] (DU-145, 48 h) it was 4.15 ± 0.63 µM; in data set [6] (HepG2, 48 h) it was 6.63 ± 0.17 µM; in data set [7] (A549, 48 h), 4.6 ± 0.42 µM.
